Experimental findings from paper PMC10176470, “Engaging a Non-catalytic Cysteine Residue Drives Potent and Selective Inhibition of Caspase-6” (Journal of the American Chemical Society, 2023) are described below.

Type in all cases: cell-based
Experiment [1] has as its target proteins of HEK293T cells transiently overexpressing caspase-6 (Homo sapiens, UniProt P33992). The conditions noted are these: exp_ref Probe; protein MCM5 (P33992); analysis C6.
For experiment [2], the target named is T1, proteins of HEK293T cells transiently overexpressing caspase-6 (Homo sapiens, UniProt P30084).
T1 sequence (P30084 28-290): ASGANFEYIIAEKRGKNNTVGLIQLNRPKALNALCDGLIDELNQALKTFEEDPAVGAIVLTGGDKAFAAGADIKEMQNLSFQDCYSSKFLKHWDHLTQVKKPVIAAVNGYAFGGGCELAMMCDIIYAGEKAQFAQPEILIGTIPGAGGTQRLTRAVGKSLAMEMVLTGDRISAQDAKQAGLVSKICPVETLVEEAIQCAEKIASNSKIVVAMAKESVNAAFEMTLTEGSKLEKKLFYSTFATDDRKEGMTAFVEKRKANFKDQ
Conditions: exp_ref Probe; protein ECHS1 (P30084); analysis C6.

Experiment [3] has as its target T2, proteins of HEK293T cells transiently overexpressing caspase-6 (Homo sapiens, UniProt Q96RQ3).
T2 sequence (Q96RQ3 42-725): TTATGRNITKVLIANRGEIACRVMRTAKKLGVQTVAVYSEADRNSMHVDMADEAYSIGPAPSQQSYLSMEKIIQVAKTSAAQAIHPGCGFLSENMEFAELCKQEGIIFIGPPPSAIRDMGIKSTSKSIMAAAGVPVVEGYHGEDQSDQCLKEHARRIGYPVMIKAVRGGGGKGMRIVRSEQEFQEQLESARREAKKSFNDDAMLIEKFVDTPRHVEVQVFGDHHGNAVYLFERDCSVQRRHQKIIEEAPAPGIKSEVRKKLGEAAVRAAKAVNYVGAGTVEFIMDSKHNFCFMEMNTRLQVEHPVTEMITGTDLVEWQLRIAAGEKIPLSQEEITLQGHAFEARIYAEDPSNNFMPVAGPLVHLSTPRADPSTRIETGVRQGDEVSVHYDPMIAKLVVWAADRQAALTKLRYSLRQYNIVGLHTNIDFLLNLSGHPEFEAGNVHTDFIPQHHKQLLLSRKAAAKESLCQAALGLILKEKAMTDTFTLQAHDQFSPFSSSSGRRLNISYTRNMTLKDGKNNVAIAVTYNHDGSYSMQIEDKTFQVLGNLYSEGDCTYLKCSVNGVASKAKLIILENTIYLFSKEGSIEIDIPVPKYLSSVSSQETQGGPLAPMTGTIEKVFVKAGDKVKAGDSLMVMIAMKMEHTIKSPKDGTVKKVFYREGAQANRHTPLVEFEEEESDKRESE

Experiment [4] deals with proteins of HEK293T cells transiently overexpressing caspase-6 (Homo sapiens, UniProt Q14157). Conditions: Probe; protein UBAP2L Q14157.
proteins of HEK293T cells transiently overexpressing caspase-6 (Homo sapiens, UniProt Q14157), sequence (Q14157 whole entry): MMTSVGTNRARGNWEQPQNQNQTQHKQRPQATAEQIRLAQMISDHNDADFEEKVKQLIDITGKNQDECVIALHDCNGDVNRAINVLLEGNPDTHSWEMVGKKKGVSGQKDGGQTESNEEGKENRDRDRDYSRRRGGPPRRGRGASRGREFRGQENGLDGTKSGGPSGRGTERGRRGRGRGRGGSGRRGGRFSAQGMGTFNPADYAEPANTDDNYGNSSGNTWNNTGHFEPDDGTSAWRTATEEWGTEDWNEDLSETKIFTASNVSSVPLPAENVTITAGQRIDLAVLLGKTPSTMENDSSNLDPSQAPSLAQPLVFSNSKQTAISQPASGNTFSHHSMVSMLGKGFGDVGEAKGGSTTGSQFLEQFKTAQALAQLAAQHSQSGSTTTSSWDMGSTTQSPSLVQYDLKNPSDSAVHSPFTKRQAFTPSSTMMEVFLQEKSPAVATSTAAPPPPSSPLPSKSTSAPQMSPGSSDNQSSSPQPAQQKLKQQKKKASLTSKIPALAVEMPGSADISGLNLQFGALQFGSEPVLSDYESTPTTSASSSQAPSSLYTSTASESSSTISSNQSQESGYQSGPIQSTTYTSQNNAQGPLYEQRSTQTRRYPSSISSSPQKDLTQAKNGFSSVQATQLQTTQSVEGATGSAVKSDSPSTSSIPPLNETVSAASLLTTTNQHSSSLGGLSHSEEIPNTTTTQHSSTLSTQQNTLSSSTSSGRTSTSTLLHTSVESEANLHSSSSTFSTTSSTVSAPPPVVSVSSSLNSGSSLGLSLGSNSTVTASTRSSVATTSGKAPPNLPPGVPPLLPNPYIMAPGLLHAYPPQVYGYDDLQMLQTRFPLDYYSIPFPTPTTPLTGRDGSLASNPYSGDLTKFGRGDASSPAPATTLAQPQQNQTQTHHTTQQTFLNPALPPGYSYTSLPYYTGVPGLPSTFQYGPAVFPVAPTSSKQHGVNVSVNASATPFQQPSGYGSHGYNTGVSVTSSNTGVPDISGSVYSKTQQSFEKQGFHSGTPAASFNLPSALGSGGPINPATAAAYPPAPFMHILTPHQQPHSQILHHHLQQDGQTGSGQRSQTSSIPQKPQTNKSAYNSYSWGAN
Experiment [5] concerns the target T3, proteins of HEK293T cells transiently overexpressing caspase-6 (Homo sapiens, UniProt Q9NQC3).
T3 sequence (Q9NQC3 1-1192): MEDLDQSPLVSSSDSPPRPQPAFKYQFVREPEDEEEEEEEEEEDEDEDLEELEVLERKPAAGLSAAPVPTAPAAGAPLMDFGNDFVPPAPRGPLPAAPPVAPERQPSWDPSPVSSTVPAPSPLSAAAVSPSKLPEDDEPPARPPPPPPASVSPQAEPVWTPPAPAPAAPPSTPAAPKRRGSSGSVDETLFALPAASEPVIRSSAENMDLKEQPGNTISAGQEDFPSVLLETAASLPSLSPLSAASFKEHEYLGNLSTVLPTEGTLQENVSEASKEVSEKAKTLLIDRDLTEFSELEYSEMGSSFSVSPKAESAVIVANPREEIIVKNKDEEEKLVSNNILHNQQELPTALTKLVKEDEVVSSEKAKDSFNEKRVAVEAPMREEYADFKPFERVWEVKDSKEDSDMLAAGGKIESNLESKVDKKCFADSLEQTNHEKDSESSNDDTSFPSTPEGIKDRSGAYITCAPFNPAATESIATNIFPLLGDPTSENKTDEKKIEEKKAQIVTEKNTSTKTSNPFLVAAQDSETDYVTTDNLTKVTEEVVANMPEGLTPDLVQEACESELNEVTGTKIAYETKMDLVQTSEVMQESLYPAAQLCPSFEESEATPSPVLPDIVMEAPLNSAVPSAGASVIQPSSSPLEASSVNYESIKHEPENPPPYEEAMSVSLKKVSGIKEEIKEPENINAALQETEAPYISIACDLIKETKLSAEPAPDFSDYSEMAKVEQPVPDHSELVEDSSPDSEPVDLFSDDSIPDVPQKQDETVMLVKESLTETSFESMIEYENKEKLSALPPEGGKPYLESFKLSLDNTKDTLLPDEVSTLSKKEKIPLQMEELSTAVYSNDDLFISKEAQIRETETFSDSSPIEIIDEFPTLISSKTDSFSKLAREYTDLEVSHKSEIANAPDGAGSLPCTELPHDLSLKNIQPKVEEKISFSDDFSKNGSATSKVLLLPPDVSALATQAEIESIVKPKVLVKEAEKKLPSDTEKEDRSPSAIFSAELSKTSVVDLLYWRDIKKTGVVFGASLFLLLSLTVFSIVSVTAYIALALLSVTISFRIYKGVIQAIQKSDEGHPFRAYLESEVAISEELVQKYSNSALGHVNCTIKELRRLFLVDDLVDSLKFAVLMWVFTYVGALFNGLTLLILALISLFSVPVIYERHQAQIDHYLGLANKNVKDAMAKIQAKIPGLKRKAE
Conditions: protein RTN4 (Q9NQC3), analysis C6.

Experiment [6] addresses proteins of HEK293T cells transiently overexpressing caspase-6 (Homo sapiens, UniProt P13010). Conditions: protein XRCC5 (P13010).
The target of experiment [7] is proteins of HEK293T cells transiently overexpressing caspase-6 (Homo sapiens, UniProt P40939). Conditions: exp_ref Probe; protein HADHA (P40939); analysis C6.
proteins of HEK293T cells transiently overexpressing caspase-6 (Homo sapiens, UniProt P40939), sequence (P40939 37-763): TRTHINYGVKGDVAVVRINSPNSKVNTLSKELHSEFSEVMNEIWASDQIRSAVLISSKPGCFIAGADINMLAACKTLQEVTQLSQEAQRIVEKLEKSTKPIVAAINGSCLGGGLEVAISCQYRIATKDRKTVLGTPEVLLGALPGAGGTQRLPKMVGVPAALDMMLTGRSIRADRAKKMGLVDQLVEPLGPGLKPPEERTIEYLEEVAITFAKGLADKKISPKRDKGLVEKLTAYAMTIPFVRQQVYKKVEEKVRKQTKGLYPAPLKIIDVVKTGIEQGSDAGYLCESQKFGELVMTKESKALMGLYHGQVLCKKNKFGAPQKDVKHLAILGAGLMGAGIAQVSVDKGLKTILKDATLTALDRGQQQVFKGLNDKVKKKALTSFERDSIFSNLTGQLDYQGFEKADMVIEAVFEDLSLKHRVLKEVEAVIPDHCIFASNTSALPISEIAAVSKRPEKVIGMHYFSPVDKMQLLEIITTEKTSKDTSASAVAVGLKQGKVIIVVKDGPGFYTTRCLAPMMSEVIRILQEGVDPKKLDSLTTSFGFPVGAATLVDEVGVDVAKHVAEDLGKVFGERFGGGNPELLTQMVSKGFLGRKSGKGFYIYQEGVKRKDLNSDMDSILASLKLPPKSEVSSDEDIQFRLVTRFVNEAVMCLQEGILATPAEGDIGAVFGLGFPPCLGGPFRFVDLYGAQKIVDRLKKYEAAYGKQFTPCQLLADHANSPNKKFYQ
The target of experiment [8] is proteins of HEK293T cells transiently overexpressing caspase-6 (Homo sapiens, UniProt Q9NZI8). Conditions: Probe; protein IGF2BP1 Q9NZI8.
proteins of HEK293T cells transiently overexpressing caspase-6 (Homo sapiens, UniProt Q9NZI8), sequence (Q9NZI8 whole entry): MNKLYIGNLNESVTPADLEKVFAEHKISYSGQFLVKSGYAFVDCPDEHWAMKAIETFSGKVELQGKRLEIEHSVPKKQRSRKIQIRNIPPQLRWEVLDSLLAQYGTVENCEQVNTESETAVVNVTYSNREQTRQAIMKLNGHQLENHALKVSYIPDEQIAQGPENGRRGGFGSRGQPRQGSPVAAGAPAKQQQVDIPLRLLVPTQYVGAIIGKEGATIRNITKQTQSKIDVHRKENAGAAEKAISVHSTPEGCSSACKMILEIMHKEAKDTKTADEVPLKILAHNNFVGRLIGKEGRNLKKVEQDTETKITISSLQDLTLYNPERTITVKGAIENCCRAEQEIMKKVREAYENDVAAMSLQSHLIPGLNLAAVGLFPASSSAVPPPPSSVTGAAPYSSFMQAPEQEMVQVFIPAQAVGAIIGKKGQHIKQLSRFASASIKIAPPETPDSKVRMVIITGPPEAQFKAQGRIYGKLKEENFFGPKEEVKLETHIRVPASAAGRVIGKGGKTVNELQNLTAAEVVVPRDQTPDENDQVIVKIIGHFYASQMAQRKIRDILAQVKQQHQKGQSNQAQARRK
Experiment [9] has as its target proteins of HEK293T cells transiently overexpressing caspase-6 (Homo sapiens, UniProt P62826). The conditions noted are these: exp_ref Probe; protein RAN (P62826); analysis C6.

proteins of HEK293T cells transiently overexpressing caspase-6 (Homo sapiens, UniProt P13010), sequence (P13010 whole entry): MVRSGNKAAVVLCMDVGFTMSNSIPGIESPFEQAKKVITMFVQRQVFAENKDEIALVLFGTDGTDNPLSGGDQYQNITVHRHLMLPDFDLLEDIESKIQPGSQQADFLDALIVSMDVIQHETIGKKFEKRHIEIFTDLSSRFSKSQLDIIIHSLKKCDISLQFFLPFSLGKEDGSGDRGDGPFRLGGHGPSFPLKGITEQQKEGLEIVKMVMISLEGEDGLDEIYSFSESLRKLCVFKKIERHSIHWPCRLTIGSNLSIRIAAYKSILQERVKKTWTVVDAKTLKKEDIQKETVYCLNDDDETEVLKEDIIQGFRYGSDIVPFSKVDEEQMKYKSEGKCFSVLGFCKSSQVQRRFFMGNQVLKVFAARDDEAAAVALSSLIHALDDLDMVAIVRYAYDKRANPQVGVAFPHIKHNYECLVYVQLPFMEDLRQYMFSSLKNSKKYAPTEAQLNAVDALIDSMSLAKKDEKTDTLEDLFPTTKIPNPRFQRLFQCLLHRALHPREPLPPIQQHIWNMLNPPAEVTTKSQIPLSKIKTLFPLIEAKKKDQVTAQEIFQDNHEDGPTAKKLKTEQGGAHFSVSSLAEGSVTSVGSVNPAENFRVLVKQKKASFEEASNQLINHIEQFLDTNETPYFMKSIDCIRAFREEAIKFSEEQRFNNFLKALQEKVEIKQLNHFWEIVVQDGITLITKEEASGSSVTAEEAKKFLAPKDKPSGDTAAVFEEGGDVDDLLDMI
proteins of HEK293T cells transiently overexpressing caspase-6 (Homo sapiens, UniProt P33992), sequence (P33992 whole entry): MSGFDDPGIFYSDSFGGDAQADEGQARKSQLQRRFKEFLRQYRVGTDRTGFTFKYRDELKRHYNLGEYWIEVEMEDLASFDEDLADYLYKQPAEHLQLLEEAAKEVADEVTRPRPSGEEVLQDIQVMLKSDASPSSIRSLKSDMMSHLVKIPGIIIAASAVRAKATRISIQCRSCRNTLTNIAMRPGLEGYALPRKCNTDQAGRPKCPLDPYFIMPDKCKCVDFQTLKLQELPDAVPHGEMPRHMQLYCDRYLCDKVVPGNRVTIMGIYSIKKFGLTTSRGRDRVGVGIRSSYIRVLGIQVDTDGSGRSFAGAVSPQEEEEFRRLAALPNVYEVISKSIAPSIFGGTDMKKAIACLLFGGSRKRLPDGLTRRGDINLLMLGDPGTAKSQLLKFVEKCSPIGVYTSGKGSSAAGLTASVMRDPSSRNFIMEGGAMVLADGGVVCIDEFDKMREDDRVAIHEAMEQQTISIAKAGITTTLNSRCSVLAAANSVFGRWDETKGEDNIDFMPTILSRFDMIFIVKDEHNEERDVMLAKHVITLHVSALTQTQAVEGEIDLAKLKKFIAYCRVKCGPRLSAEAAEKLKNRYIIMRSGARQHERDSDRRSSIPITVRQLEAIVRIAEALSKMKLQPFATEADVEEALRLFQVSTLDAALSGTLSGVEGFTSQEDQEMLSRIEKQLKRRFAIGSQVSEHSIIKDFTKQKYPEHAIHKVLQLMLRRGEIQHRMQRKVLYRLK

`C#CCOc1ccc([C@@H]2C[C@@H](C(=O)Nc3ccc(OC(F)(F)F)cc3)CN(S(=O)(=O)C=C)C2)cc1` (relative stereo) [13-t]: the enrich.exp.med in experiment [1] is 1.028; in experiment [2] it was 0.4283; in [3] (Probe, protein MCCC1 Q96RQ3), -2.028; in experiment [4], -0.84; in experiment [5] (exp_ref Probe) it was 2.686; in experiment [6] (exp_ref Probe, analysis C6) it was 0.8127. Moreover, the enrich.exp.med is on record as 0.4567 in experiment [7], -0.7898 in [8] and 0.5777 in experiment [9]. Moreover, the values for the enrich.exp.med.lin in experiment [3] (protein MCCC1 (Q96RQ3)), in experiment [5] (Expt Probe) and in experiment [6] were 0.2451, 6.436 and 1.757, respectively. Besides, the results for the enrich.exp.med.log2 in [3] (protein MCCC1 (Q96RQ3)), in [5] (Expt Probe) and in [6] were -2.028, 2.686 and 0.8127, respectively.
